Test results reported in paper PMC5766581, “NF-κB inducing kinase is a therapeutic target for systemic lupus erythematosus” (Nature Communications, 2018).

What was measured:
Assay in all cases: SelectScreen kinase panel
Format in all cases: biochemical
AKT2 = target: T1, AKT2 (Homo sapiens, UniProt P31751)
T1 construct: purchased Invitrogen / ThermoFisher SelectScreen
Method in brief: (§1)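 Using one of three vendor formats (Z′-LYTE, Adapta, LanthaScreen), Invitrogen measured compound effects across its SelectScreen kinase collection. Average inhibition percentages are listed.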

Blk = target: T2, Blk (Homo sapiens, UniProt P51451)
T2 construct: purchased Invitrogen / ThermoFisher SelectScreen
Method in brief: as §1

Bmx = target: T3, Bmx (Homo sapiens, UniProt P51813)
T3 construct: purchased Invitrogen / ThermoFisher SelectScreen
Method in brief: as §1

Brk = target: T4, Brk (Homo sapiens, UniProt Q13882)
T4 construct: purchased Invitrogen / ThermoFisher SelectScreen
Method in brief: as §1

CK1_delta = target: T5, CK1_delta (Homo sapiens, UniProt P48730)
T5 construct: purchased Invitrogen / ThermoFisher SelectScreen
Method in brief: as §1

CaMKI_delta = target: T6, CaMKI_delta (Homo sapiens, UniProt Q8IU85)
T6 construct: purchased Invitrogen / ThermoFisher SelectScreen
Method in brief: as §1

DYRK3 = target: T7, DYRK3 (Homo sapiens, UniProt O43781)
T7 construct: purchased Invitrogen / ThermoFisher SelectScreen
Method in brief: as §1

EGFR (T790M,L858R) = target: T8, EGFR (T790M,L858R) (Homo sapiens, UniProt P00533, L858R/T790M)
T8 construct: purchased Invitrogen / ThermoFisher SelectScreen
Method in brief: as §1

FGFR4 = target: T9, FGFR4 (Homo sapiens, UniProt P22455)
T9 construct: purchased Invitrogen / ThermoFisher SelectScreen
Method in brief: as §1

Fgr = target: T10, Fgr (Homo sapiens, UniProt P09769)
T10 construct: purchased Invitrogen / ThermoFisher SelectScreen
Method in brief: as §1

Flt4 = target: T11, Flt4 (Homo sapiens, UniProt P35916)
T11 construct: purchased Invitrogen / ThermoFisher SelectScreen
Method in brief: as §1

GSK3_beta = target: T12, GSK3_beta (Homo sapiens, UniProt P49841)
T12 construct: purchased Invitrogen / ThermoFisher SelectScreen
T12 sequence (P49841 whole entry): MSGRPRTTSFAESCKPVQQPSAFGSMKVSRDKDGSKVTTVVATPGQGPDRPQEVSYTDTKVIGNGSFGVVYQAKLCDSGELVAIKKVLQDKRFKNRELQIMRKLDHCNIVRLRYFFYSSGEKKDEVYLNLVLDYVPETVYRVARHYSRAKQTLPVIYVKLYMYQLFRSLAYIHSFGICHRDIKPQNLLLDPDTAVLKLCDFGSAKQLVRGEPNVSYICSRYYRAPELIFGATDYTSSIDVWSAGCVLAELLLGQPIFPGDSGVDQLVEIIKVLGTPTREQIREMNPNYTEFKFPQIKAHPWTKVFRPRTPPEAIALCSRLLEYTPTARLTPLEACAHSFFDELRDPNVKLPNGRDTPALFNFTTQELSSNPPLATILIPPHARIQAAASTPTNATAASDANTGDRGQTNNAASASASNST
Method in brief: as §1

LRRK2 = target: T13, LRRK2 (Homo sapiens, UniProt Q5S007); settings: NIK SMI1 1 µM; ATP Km app
T13 construct: purchased Invitrogen / ThermoFisher SelectScreen
T13 sequence (Q5S007 whole entry): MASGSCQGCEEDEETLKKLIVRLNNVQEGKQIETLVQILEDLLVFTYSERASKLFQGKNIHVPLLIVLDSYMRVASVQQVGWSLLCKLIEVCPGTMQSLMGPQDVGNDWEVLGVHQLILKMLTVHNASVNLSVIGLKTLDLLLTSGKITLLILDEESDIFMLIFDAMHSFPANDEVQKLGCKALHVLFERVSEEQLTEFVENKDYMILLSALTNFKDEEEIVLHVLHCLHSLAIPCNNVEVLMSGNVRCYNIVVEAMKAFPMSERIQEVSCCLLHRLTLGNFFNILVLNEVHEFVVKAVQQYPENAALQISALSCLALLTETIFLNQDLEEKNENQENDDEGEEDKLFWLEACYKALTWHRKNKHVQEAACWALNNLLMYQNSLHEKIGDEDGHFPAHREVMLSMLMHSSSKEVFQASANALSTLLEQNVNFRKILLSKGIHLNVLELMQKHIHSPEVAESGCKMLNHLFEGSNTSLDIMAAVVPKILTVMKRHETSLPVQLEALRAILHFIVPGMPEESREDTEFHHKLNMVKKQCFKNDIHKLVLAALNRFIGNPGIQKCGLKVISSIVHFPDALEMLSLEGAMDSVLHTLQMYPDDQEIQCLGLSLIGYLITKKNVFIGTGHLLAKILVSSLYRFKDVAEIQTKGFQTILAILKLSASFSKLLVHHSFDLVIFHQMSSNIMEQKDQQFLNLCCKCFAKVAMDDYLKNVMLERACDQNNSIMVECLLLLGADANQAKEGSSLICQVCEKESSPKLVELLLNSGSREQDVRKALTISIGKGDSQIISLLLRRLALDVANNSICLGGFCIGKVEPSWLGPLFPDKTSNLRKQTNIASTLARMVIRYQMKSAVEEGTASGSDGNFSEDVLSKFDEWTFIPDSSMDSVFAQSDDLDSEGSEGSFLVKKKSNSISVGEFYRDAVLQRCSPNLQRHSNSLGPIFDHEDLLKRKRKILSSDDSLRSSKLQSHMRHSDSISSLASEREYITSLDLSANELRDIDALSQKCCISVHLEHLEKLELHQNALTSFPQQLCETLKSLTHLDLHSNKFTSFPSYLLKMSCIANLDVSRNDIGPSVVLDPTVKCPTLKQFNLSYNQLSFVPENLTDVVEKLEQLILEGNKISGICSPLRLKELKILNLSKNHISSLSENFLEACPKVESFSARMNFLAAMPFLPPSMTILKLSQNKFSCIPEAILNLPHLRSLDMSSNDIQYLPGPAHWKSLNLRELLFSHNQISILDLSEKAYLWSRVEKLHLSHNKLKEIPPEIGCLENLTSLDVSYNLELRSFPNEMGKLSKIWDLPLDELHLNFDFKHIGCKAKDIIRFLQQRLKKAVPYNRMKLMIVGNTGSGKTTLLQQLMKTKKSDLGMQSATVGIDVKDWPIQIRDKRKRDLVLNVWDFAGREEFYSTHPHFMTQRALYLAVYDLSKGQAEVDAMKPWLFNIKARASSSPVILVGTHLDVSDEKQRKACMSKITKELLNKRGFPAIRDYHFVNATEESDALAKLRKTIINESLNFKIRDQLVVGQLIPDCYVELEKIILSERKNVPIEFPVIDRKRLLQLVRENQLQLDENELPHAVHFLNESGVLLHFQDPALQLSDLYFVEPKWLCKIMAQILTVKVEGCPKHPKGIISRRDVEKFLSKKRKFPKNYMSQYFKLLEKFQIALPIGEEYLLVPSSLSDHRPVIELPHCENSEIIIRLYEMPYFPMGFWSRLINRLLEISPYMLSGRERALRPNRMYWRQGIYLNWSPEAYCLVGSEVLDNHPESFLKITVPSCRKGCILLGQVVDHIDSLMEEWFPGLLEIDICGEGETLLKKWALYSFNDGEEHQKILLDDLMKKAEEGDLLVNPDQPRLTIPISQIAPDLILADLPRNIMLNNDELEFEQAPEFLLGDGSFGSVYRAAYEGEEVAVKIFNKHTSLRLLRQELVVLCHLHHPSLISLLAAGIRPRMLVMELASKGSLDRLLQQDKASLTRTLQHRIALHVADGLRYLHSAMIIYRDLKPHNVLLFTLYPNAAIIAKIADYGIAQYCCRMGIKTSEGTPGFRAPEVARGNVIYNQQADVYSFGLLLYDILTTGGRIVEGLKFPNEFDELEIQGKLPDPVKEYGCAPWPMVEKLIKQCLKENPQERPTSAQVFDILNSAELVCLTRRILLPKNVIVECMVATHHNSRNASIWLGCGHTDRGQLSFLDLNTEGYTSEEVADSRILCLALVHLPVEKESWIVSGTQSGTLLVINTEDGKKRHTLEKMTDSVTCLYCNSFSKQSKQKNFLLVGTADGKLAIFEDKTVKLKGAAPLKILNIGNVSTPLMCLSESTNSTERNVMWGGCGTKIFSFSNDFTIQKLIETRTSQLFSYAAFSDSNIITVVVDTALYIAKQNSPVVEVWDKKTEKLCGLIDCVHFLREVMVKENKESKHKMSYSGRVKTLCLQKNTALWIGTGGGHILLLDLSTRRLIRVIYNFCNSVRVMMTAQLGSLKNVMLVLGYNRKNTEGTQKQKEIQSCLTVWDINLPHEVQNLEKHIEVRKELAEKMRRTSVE
Method in brief: as §1

LTK = target: T14, LTK (Homo sapiens, UniProt P29376)
T14 construct: purchased Invitrogen / ThermoFisher SelectScreen
Method in brief: as §1

MAPKAPK3 = target: T15, MAPKAPK3 (Homo sapiens, UniProt Q16644)
T15 construct: purchased Invitrogen / ThermoFisher SelectScreen
T15 sequence (Q16644 whole entry): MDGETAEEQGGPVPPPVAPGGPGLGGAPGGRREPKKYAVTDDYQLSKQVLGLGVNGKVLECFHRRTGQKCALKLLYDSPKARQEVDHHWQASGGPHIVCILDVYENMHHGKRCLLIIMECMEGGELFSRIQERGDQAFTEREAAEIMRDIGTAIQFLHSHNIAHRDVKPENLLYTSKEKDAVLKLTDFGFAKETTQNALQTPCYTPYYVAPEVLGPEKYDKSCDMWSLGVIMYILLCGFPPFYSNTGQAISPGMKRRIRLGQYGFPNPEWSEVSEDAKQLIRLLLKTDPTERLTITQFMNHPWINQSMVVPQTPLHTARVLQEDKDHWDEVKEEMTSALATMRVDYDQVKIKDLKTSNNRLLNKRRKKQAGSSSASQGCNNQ
Method in brief: as §1

MELK = target: T16, MELK (Homo sapiens, UniProt Q14680)
T16 construct: purchased Invitrogen / ThermoFisher SelectScreen
Method in brief: as §1

Mink1 = target: T17, Mink1 (Homo sapiens, UniProt Q8N4C8)
T17 construct: purchased Invitrogen / ThermoFisher SelectScreen
Method in brief: as §1

NEK1 = target: T18, NEK1 (Homo sapiens, UniProt Q96PY6)
T18 construct: purchased Invitrogen / ThermoFisher SelectScreen
Method in brief: as §1

NEK4 = target: T19, NEK4 (Homo sapiens, UniProt P51957)
T19 construct: purchased Invitrogen / ThermoFisher SelectScreen
Method in brief: as §1

NEK6 = target: T20, NEK6 (Homo sapiens, UniProt Q9HC98)
T20 construct: purchased Invitrogen / ThermoFisher SelectScreen
Method in brief: as §1

P38_delta = target: T21, P38_delta (Homo sapiens, UniProt O15264)
T21 construct: purchased Invitrogen / ThermoFisher SelectScreen
Method in brief: as §1

PAK4 = target: T22, PAK4 (Homo sapiens, UniProt O96013)
T22 construct: purchased Invitrogen / ThermoFisher SelectScreen
Method in brief: as §1

PKC-epsilon = target: T23, PKC-epsilon (Homo sapiens, UniProt Q02156)
T23 construct: purchased Invitrogen / ThermoFisher SelectScreen
Method in brief: as §1

PKD1 = target: T24, PKD1 (Homo sapiens, UniProt Q15139); settings: NIK SMI1 1 µM; ATP Km app
T24 construct: purchased Invitrogen / ThermoFisher SelectScreen
T24 sequence (Q15139 whole entry): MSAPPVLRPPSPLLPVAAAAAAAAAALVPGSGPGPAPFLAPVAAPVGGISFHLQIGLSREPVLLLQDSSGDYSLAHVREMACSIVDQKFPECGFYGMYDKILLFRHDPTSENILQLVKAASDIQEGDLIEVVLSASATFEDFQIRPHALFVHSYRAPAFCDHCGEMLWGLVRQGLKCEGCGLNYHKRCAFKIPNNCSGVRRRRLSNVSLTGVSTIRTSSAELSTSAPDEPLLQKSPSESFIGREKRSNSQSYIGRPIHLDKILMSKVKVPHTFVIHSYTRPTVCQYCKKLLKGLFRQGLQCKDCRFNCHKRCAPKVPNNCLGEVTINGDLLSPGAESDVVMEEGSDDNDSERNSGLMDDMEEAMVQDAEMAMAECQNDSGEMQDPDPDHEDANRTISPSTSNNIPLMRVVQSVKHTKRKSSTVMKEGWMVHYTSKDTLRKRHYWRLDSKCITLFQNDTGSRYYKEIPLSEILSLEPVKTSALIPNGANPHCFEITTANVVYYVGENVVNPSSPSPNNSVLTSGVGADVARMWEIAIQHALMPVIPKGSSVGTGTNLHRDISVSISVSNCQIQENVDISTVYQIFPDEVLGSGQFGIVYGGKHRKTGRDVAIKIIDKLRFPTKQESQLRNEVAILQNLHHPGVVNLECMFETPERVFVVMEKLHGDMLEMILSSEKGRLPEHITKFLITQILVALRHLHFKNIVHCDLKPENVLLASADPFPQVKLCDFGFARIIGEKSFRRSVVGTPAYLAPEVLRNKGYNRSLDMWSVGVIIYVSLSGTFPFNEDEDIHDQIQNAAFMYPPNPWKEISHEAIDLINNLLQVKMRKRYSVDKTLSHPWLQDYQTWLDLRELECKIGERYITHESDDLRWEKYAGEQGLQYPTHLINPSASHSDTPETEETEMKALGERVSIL
Method in brief: as §1

PhK_gamm1 = target: T25, PhK_gamm1 (Homo sapiens, UniProt Q16816)
T25 construct: purchased Invitrogen / ThermoFisher SelectScreen
Method in brief: as §1

RSK3 = target: T26, RSK3 (Homo sapiens, UniProt Q15349)
T26 construct: purchased Invitrogen / ThermoFisher SelectScreen
T26 sequence (Q15349 whole entry): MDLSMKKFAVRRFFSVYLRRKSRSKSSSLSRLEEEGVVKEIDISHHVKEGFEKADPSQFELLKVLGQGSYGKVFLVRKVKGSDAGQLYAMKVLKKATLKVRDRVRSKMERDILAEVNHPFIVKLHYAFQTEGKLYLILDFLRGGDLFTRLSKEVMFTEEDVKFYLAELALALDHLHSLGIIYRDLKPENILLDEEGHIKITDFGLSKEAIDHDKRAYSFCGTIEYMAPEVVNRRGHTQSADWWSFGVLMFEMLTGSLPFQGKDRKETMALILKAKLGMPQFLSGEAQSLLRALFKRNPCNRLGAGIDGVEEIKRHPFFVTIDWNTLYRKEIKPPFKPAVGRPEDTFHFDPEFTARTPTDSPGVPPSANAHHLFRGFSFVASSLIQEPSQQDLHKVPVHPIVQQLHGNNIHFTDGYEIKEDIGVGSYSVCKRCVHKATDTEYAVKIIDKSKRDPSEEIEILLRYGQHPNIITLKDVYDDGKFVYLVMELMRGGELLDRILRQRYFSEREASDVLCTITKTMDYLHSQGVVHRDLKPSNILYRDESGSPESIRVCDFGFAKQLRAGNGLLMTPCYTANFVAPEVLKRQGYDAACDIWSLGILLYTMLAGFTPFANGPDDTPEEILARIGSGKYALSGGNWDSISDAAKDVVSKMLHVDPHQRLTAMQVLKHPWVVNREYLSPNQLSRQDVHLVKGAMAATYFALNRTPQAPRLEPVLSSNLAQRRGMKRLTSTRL
Method in brief: as §1

Ron = target: T27, Ron (Homo sapiens, UniProt Q04912)
T27 construct: purchased Invitrogen / ThermoFisher SelectScreen
Method in brief: as §1

SRPK1 = target: T28, SRPK1 (Homo sapiens, UniProt Q96SB4)
T28 construct: purchased Invitrogen / ThermoFisher SelectScreen
Method in brief: as §1

TAO1 = target: T29, TAO1 (Homo sapiens, UniProt Q9UL54)
T29 construct: purchased Invitrogen / ThermoFisher SelectScreen
Method in brief: as §1

mTOR = target: T30, mTOR (Homo sapiens, UniProt P42345)
T30 construct: purchased Invitrogen / ThermoFisher SelectScreen
Method in brief: as §1

p38_alpha = target: T31, p38_alpha (Homo sapiens, UniProt Q16539)
T31 construct: purchased Invitrogen / ThermoFisher SelectScreen
Method in brief: as §1

p70S6K = target: T32, p70S6K (Homo sapiens, UniProt P23443)
T32 construct: purchased Invitrogen / ThermoFisher SelectScreen
Method in brief: as §1

In the case of `COc1cc(C(N)=O)nc(-c2cccc(C#C[C@]3(O)CCN(C)C3=O)c2)c1` [NIK SMI1], the inhibition at 1 µM (AKT2) is reported as 13%, the inhibition at 1 µM (Blk) is reported as -10.5% and the inhibition at 1 µM (Bmx) is reported as -5%. It also gave an inhibition at 1 µM (Brk) of 7%, an inhibition at 1 µM (CK1_delta) of -4.5% and an inhibition at 1 µM (CaMKI_delta) of 15%. The inhibition at 1 µM (DYRK3) was 1.5%, the inhibition at 1 µM (EGFR (T790M,L858R)) was 9.5% and the inhibition at 1 µM (FGFR4) was 7.5%. The inhibition at 1 µM (Fgr) was 8%, the inhibition at 1 µM (Flt4) was 9% and the inhibition at 1 µM (GSK3_beta) was 5%. For the same compound, the “% Inhibition” value (LRRK2) was 82.1%, the inhibition at 1 µM (LRRK2) was > 75% and the inhibition at 1 µM (LTK) was -1%. It also gave an inhibition at 1 µM (MAPKAPK3) of 1%, an inhibition at 1 µM (MELK) of 26.5% and an inhibition at 1 µM (Mink1) of 53.5%. It also gave an inhibition at 1 µM (NEK1) of 31.5%, an inhibition at 1 µM (NEK4) of 11% and an inhibition at 1 µM (NEK6) of 17%. It also gave an inhibition at 1 µM (P38_delta) of 12.5%, an inhibition at 1 µM (PAK4) of 64% and an inhibition at 1 µM (PKC-epsilon) of 2%. For the same compound, the “% Inhibition” value (PKD1) was 79%, the inhibition at 1 µM (PKD1) was > 75% and the inhibition at 1 µM (PhK_gamm1) was 6.5%. It also gave an inhibition at 1 µM (RSK3) of 5%, an inhibition at 1 µM (Ron) of 13% and an inhibition at 1 µM (SRPK1) of 8.5%. The inhibition at 1 µM (TAO1) was 17%, the inhibition at 1 µM (mTOR) was -1% and the inhibition at 1 µM (p38_alpha) was -7.5%. For the same compound, the inhibition at 1 µM (p70S6K) was 9.5%.
